Marks after values point to notes of the source that are not given here. Starred links: 1 amine or outer side, 2 acyl side, 3 side chain; linkers in the order of their positions; H or OH if unused. Non-standard residues stand in square brackets, D forms with d. Residues, ends and D or L forms follow the SMILES beside them. Groups on a side chain read outwards from the residue. No end group written: not given here. *: point of attachment. C18 diacid = O=C(O)CCCCCCCCCCCCCCCCC(=O)*; γGlu = O=C(O)[C@H](CCC(=O)[*:2])N[*:1]; εLys = N[C@@H](CCCCN[*:1])C(=O)[*:2]; Aib = CC(C)(N)C(=O)O

Series [1] can be described thus: Pharmacokinetic study in dogs after oral dosing of tablets with SNAC. Type of series: in vivo, Beagle dogs. The settings on record: dog, in vivo, po. The protocol: The purpose of this example is to determine the half-life and plasma exposure in vivo of the compounds of the present invention after p.o. administration to beagle dogs, i.e. the terminal half-life and concentration of test substance that reaches circulation with time. This is done in a pharmacokinetic (PK) study, where these parameters of the compound in question are determined. By terminal half-life is generally meant the period of time it takes to halve a certain plasma concentration, measured after the initial distribution phase.
The amount of SNAC in the tablet composition was 100-300 mg, the amount of magnesium stearate in the tablet composition was 7.7 mg, and the target amount of each test substance in the tablet composition was 3-4 mg.
Male beagle dogs, 1-7 years of age and weighing 9-17 kg during the study period, were included in the study. The dogs were dosed in a fasting state. The dogs were group housed in pens (12 hours light: 12 hours dark), and fed individually and restrictedly once daily with Royal Canin Medium Adult dog food (Royal Canin Products, China Branch, or Brogaarden A/S, Denmark). The dogs were used for repeated PK studies with a suitable wash-out period between successive dosing. An appropriate acclimatization period was given prior to initiation of the first PK study. All handling, dosing, and blood sampling of the animals were performed by trained and skilled staff. Before the studies, the dogs were fasted overnight and from 0 to 4 hours after dosing. The dogs were restricted to water 1 hour before dosing until 4 hours after dosing, but otherwise had ad libitum access to water during the whole period.
The compositions were administered by a single oral dosing to the dogs in groups of 6-8 dogs. […] The mouth was then closed, and 10 mL of tap water was given by syringe or gavage to facilitate swallowing of the tablet.
For each blood sample time point, approximately 0.8 mL of whole blood was collected in a 1.5 mL EDTA-coated tube, which was gently turned to mix the sample with EDTA. Blood samples were collected in EDTA buffer (8 mM) and then centrifuged at 4° C. and 2000g for 10 minutes. Plasma was pipetted into Micronic tubes on dry ice, and kept at −20° C. or lower until analysis. Blood samples were taken as appropriate, for example from a venflon in the cephalic vein in the front leg for the first 2 hours and then with syringe from the jugular vein for the rest of the time points. The first few drops were allowed to drain from the venflon to avoid heparin saline from the venflon in the sample.
All blood samples were collected into test tubes containing EDTA for stabilisation and kept on ice until centrifugation. Plasma was separated from whole blood by centrifugation and the plasma was stored at −20° C. or lower until analysis.
The plasma was analysed for test substance using LC-MS (Liquid Chromatography-Mass Spectrometry) as known to the person skilled in the art. […] RP-HPLC separation was achieved using a linear gradient of 1:1 acetonitrile/methanol in 1% aqueous formic acid using either: a Phenomenex Onyx Monolithic C18 column (50×2.0 mm) and a flow rate of 0.8 mL/min at 30° C.; or an Agilent Poroshell 120 SB-C18 column (50×2.1 mm, 2.7 μm) at a flow rate of 0.4 mL/min at 60° C. The mass spectrometer was operated in either positive ionization SIM mode or positive ionization PRM mode.
For each individual animal, a plasma concentration-time profile was analysed by a non-compartmental model in Pharsight Phoenix WinNonLin ver. 6.4 software or other relevant software for PK analysis, and the resulting terminal half-life (t1/2), maximum plasma concentration per dose (Cmax/D), time for maximum plasma concentration (tmax), and area under the curve to infinity per dose (AUC/D) were determined. Summary statistics of pharmacokinetic results were presented as median (for tmax), harmonic mean ([…]), or arithmetic mean (Cmax, AUC).

For series [2], the target named is human GLP-1 receptor (human, UniProt P43220 24-463). Description: cell-based or functional assay.
Series [3] addresses T1, human GIP receptor (human, UniProt P48546 22-466).
T1 sequence (looked up): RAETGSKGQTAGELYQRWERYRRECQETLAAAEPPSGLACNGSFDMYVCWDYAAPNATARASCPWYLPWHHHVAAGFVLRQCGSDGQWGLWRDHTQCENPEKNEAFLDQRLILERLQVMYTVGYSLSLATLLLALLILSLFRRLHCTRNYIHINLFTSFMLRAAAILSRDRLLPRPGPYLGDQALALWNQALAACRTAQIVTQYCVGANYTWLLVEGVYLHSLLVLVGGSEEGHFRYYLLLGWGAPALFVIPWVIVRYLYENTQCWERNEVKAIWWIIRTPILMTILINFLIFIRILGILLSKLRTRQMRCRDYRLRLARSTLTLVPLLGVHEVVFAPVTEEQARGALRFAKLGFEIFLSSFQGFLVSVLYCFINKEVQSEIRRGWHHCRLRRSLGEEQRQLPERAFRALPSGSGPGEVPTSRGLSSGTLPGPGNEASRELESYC
Description: cell-based or functional assay.

As to `CC[C@H](C)[C@H](NC(=O)[C@H](Cc1ccccc1)NC(=O)[C@H](CCC(=O)O)NC(=O)[C@H](CCC(N)=O)NC(=O)[C@H](C)NC(=O)[C@H](C)NC(=O)[C@H](CCC(N)=O)NC(=O)[C@H](CCCCNC(=O)[C@@H](N)CCCCNC(=O)[C@@H](N)CCCCNC(=O)CC[C@H](NC(=O)CCCCCCCCCCCCCCCCC(=O)O)C(=O)O)NC(=O)[C@H](CCC(=O)O)NC(=O)[C@H](CC(C)C)NC(=O)[C@H](CC(C)C)NC(=O)[C@@H](NC(=O)[C@H](CO)NC(=O)[C@H](Cc1ccc(O)cc1)NC(=O)[C@H](CC(=O)O)NC(=O)[C@H](CO)NC(=O)[C@@H](NC(=O)[C@H](Cc1ccccc1)NC(=O)[C@@H](NC(=O)CNC(=O)[C@H](CCC(=O)O)NC(=O)C(C)(C)NC(=O)[C@@H](N)Cc1ccc(O)cc1)[C@@H](C)O)[C@@H](C)O)[C@@H](C)CC)C(=O)N[C@@H](CCC(=O)O)C(=O)N[C@@H](Cc1c[nH]c2ccccc12)C(=O)N[C@@H](CC(C)C)C(=O)N[C@@H](CC(C)C)C(=O)N[C@@H](C)C(=O)NCC(=O)NCC(=O)N1CCC[C@H]1C(=O)N[C@@H](CO)C(=O)N[C@@H](CO)C(=O)NCC(=O)N[C@@H](C)C(=O)N1CCC[C@H]1C(=O)N1CCC[C@H]1C(=O)N1CCC[C@H]1C(=O)N[C@@H](CO)C(=O)O` [Compound No. 29] (H-Y[Aib]EGTFTSDYSILLEK([εLys-εLys-γGlu-C18 diacid])QAAQEFIEWLLAGGPSSGAPPPS-OH), the Cmax/Dose in series [1] is recorded as 0.26** kg/L.
Take `CC[C@H](C)[C@H](NC(=O)[C@H](Cc1ccccc1)NC(=O)[C@H](CCC(=O)O)NC(=O)[C@H](CCCNC(=N)N)NC(=O)[C@H](C)NC(=O)[C@H](C)NC(=O)[C@H](CCC(N)=O)NC(=O)[C@H](CCC(=O)O)NC(=O)[C@H](CCC(=O)O)NC(=O)[C@H](CC(C)C)NC(=O)[C@H](CC(C)C)NC(=O)[C@H](CCCCNC(=O)[C@@H](N)CCCCNC(=O)[C@@H](N)CCCCNC(=O)CC[C@H](NC(=O)CCCCCCCCCCCCCCCCC(=O)O)C(=O)O)NC(=O)[C@H](CO)NC(=O)[C@H](Cc1ccc(O)cc1)NC(=O)[C@H](CC(=O)O)NC(=O)[C@H](CO)NC(=O)[C@@H](NC(=O)[C@H](Cc1ccccc1)NC(=O)[C@@H](NC(=O)CNC(=O)[C@H](CCC(=O)O)NC(=O)C(C)(C)NC(=O)[C@@H](N)Cc1ccc(O)cc1)[C@@H](C)O)[C@@H](C)O)C(=O)N[C@@H](CCC(=O)O)C(=O)N[C@@H](Cc1c[nH]c2ccccc12)C(=O)N[C@@H](CC(C)C)C(=O)N[C@@H](CC(C)C)C(=O)N[C@@H](C)C(=O)NCC(=O)NCC(=O)N1CCC[C@H]1C(=O)N[C@@H](CO)C(=O)N[C@@H](CO)C(=O)NCC(=O)N[C@@H](C)C(=O)N1CCC[C@H]1C(=O)N1CCC[C@H]1C(=O)N1CCC[C@H]1C(=O)N[C@@H](CO)C(=O)O` [Compound No. 40]: in series [1], the AUC/Dose was 27.0 kg·h/L and the Cmax/Dose amounted to 0.48 kg/L.
On the same counts, the results for `CC[C@H](C)[C@H](NC(=O)[C@H](Cc1ccccc1)NC(=O)[C@H](CCC(=O)O)NC(=O)[C@H](Cc1c[nH]cn1)NC(=O)[C@H](C)NC(=O)[C@H](C)NC(=O)[C@H](CCC(N)=O)NC(=O)[C@H](CCCCNC(=O)[C@@H](N)CCCCNC(=O)[C@@H](N)CCCCNC(=O)CC[C@H](NC(=O)CCCCCCCCCCCCCCCCC(=O)O)C(=O)O)NC(=O)[C@H](CCC(=O)O)NC(=O)[C@H](CC(C)C)NC(=O)[C@H](CC(C)C)NC(=O)[C@@H](NC(=O)[C@H](CO)NC(=O)[C@H](Cc1ccc(O)cc1)NC(=O)[C@H](CC(=O)O)NC(=O)[C@H](CO)NC(=O)[C@@H](NC(=O)[C@H](Cc1ccccc1)NC(=O)[C@@H](NC(=O)CNC(=O)[C@H](CCC(=O)O)NC(=O)C(C)(C)NC(=O)[C@@H](N)Cc1ccc(O)cc1)[C@@H](C)O)[C@@H](C)O)[C@@H](C)CC)C(=O)N[C@@H](CCC(=O)O)C(=O)N[C@@H](Cc1c[nH]c2ccccc12)C(=O)N[C@@H](CC(C)C)C(=O)N[C@@H](CC(C)C)C(=O)N[C@@H](C)C(=O)NCC(=O)NCC(=O)N1CCC[C@H]1C(=O)N[C@@H](CO)C(=O)N[C@@H](CO)C(=O)NCC(=O)N[C@@H](C)C(=O)N1CCC[C@H]1C(=O)N1CCC[C@H]1C(=O)N1CCC[C@H]1C(=O)N[C@@H](CO)C(=O)O` [Compound No. 30] (H-Y[Aib]EGTFTSDYSILLEK([εLys-εLys-γGlu-C18 diacid])QAAHEFIEWLLAGGPSSGAPPPS-OH) are 6.5 kg·h/L and 0.24 kg/L.

B1: Compound No. 17 (peptide)
peptide: YAEGTFTSDYSIYLEK([εLys-εLys-γGlu-C18 diacid])QAAREFINWLLAGGPSSGAPPPS-OH
modifications: N-terminus assumed
SMILES: CC[C@H](C)[C@H](NC(=O)[C@H](Cc1ccccc1)NC(=O)[C@H](CCC(=O)O)NC(=O)[C@H](CCCNC(=N)N)NC(=O)[C@H](C)NC(=O)[C@H](C)NC(=O)[C@H](CCC(N)=O)NC(=O)[C@H](CCCCNC(=O)[C@@H](N)CCCCNC(=O)[C@@H](N)CCCCNC(=O)CC[C@H](NC(=O)CCCCCCCCCCCCCCCCC(=O)O)C(=O)O)NC(=O)[C@H](CCC(=O)O)NC(=O)[C@H](CC(C)C)NC(=O)[C@H](Cc1ccc(O)cc1)NC(=O)[C@@H](NC(=O)[C@H](CO)NC(=O)[C@H](Cc1ccc(O)cc1)NC(=O)[C@H](CC(=O)O)NC(=O)[C@H](CO)NC(=O)[C@@H](NC(=O)[C@H](Cc1ccccc1)NC(=O)[C@@H](NC(=O)CNC(=O)[C@H](CCC(=O)O)NC(=O)[C@H](C)NC(=O)[C@@H](N)Cc1ccc(O)cc1)[C@@H](C)O)[C@@H](C)O)[C@@H](C)CC)C(=O)N[C@@H](CC(N)=O)C(=O)N[C@@H](Cc1c[nH]c2ccccc12)C(=O)N[C@@H](CC(C)C)C(=O)N[C@@H](CC(C)C)C(=O)N[C@@H](C)C(=O)NCC(=O)NCC(=O)N1CCC[C@H]1C(=O)N[C@@H](CO)C(=O)N[C@@H](CO)C(=O)NCC(=O)N[C@@H](C)C(=O)N1CCC[C@H]1C(=O)N1CCC[C@H]1C(=O)N1CCC[C@H]1C(=O)N[C@@H](CO)C(=O)O
Regarding B1, in series [2], the “hGLP-1R, CRE Luc 0% HSA EC50 (pM)” value was determined as 5.2 pM and the “hGLP-1R, CRE Luc 1% HSA EC50 (pM)” value was 257 pM. In series [3], the “hGIPR, CRE Luc 0% HSA EC50 (pM)” value was determined as 34.9 pM and the “hGIPR, CRE Luc 1% HSA EC50 (pM)” value was determined as 1320 pM.

The values are drawn from US20230272029A1, “CO-AGONISTS AT GLP-1 AND GIP RECEPTORS SUITABLE FOR ORAL DELIVERY” (Novo Nordisk A/S, priority 2020, published 2023).
